From PMC7646544, “Scaffold hopping and optimisation of 3’,4’-dihydroxyphenyl- containing thienopyrimidinones: synthesis of quinazolinone derivatives as novel allosteric inhibitors of HIV-1 reverse transcriptase-associated ribonuclease H” (Journal of Enzyme Inhibition and Medicinal Chemistry, 2020)
Like-named read-outs stand apart in the source and are kept apart here.

Columns and labels:
[1] = biological target: T1, wt HIV-1 RT-associated RNase H (Human immunodeficiency virus type 1 group M subtype B, UniProt P04585); experiment: RNase H inhibitor analysis, wild type RT (fluorescent RNA/DNA hybrid); type: biochemical; settings: for IC50: wild type RT
T1 construct: dynamics at the p66/p51 HIV-1 RT-RNase H dimer interface; made in house
Experimental: All assays were performed in triplicate.

HIV-1 RT-associated RDDP = biological target: T2, HIV-1 RT-associated RDDP (Human immunodeficiency virus type 1 group M subtype B, UniProt P04585); experiment: HIV-1 RNA-dependent DNA polymerase activity determination; type: biochemical; settings: wt RT, poly(A)-oligo(dT)
T2 construct: dynamics at the p66/p51 HIV-1 RT-RNase H dimer interface; made in house
Experimental: HIV-1 RT-associated RDDP activity was measured as described[17]^,[38]. Briefly, in 25 μL volume containing 60 mM Tris-HCl pH 8.1, 8 mM MgCl2, 60 mM KCl, 13 mM DTT, poly(A)-oligo(dT), 100 μM dTTP, and 6 ng wt RT. After enzyme addition, the reaction mixture was incubated for 30 min at 37 °C and stopped by addition of EDTA. […] All assays were performed in triplicate.

[2] = biological target: T3, HIV-1 IN in the presence of LEDGF/p75 (Human immunodeficiency virus type 1 group M subtype B, UniProt P04585); experiment: HTRF IN LEDGF/p75-dependent assay; type: biochemical
T3 construct: made in house
Experimental: The IN LEDGF/p75-dependent assay measures inhibition of IN activity in the presence of LEDGF/p75 protein[35–37]. Briefly, 50 nM IN was pre-incubated with increasing concentration of compounds for 1 h at room temperature in reaction buffer containing 20 mM HEPES pH 7.5, 1 mM DTT, 1% Glycerol, 20 mM MgCl2, 0.05% Brij-35 and 0.1 mg/ml BSA. To this mixture, 9 nM DNA donor substrate (5′-[…]-Biotin-3′ annealed with 5′-[…]-Biotin3’) and 50 nM DNA acceptor substrate (5′-Cy5-[…]-3′ annealed with 5′-Cy5- […]-3′) and 50 nM LEDGF/p75 were added and incubated at 37 °C for 90 min.

[3] = biological target: T4, p66/p51C280A mutant HIV-1 RNase H (Human immunodeficiency virus type 1 group M subtype B, UniProt P04585, C867A); experiment: RNase H inhibitor analysis, p66/p51 C280A mutant RT
Experimental: IC50 values were determined as previously reported[31] using an 18-nt 3′-fluorescein-labeled RNA annealed to a complementary 18-nt 5′-dabcyl-labeled DNA. To a 96-well plate was added 1 μL of each inhibitor (in DMSO), followed by 10 μL of the appropriate RT (15−80 ng/mL) in reaction buffer. […] Wells containing only DMSO was used as negative control. […] IC50 values were determined using Prism5 (GraphPad Software, San Diego, CA). All assays were performed in triplicate.

[4] = Cytotoxicity in XTT-based cell viability assay; settings: human, CEM-SS T cells
Experimental: (§1) Antiviral activity of selected thienopyrimidinones was determined via the 2,3-bis[2-methoxy-4-nitro-5-sulfophenyl]-5-[(phenylamino)carbonyl]-2H tetrazolium hydroxide (XTT)-based cell viability assay of Weislow et al.[45], using the HIV-1RF isolate and human T-cell line CEM-SS.

[5] = system: HIV-1RF isolate in CEM-SS cells; experiment: Antiviral activity, XTT-based cell viability assay; settings: for selectivity index (SI): CC50/EC50, CEM-SS cells; for EC50: Human immunodeficiency virus 1, HIV-1RF, CEM-SS cells, XTT
Experimental: as §1

[6] = biological target: T5, HIV-1 RT-associated RNase H (Human immunodeficiency virus type 1 group M subtype B, UniProt P04585); experiment: Yonetani-Theorell analysis on RNase H activity; type: biochemical; settings: combination of compound 11 and compound 24
T5 construct: dynamics at the p66/p51 HIV-1 RT-RNase H dimer interface; made in house
Experimental: Yonetani–Theorell analysis[43] was performed as reported. Briefly, HIV RT-associated RNase H activity was measured in 100 µL reaction volume containing 50 mM Tris–HCl buffer pH 7.8, 6 mM MgCl2, 1 mM dithiothreitol (DTT), 80 mM KCl, 0.25 µM hybrid RNA/DNA 5′-[…]-Fluorescin-3′ (HPLC, dry, QC: Mass Check) (available from Metabion) 5′-Dabcyl-[…]-3′(HPLC, dry, QC: Mass Check), and different amount of enzymes according to a linear range of dose-response curve: 20 ng of WT RT, and increasing concentrations of inhibitor (diluted) in water and incubated for 1 h at 37 °C, at 200 rpm. Products were measured with a multilabel counter plate reader Victor 3 (Perkin Elmer model 1420-051) equipped with filters for 490/528 nm (excitation/emission wavelength). A calibration curve for the fluorescein signal was generated in parallel, calculating pmols of product generated by the reaction. The reciprocal of the reaction product was plotted vs. the compound concentration a different condition using the Sigma-Plot software.

[7] = biological target: T1, wt HIV-1 RT-associated RNase H; settings: wild type RT, cited from earlier work
[8] = biological target: T4, p66/p51C280A mutant HIV-1 RNase H; design: made in house; method as in PMID 24261890; settings: p66/p51 C280A mutant RT; cited from earlier work

| Structure (SMILES) | IC50 [1] [µM] | IC50 (HIV-1 RT-associated RDDP) [µM] | IC50 [2] [µM] | IC50 [3] [nM] | also measured |
| --- | --- | --- | --- | --- | --- |
| O=c1[nH]c(-c2ccc([N+](=O)[O-])c(O)c2)nc2ccccc12 [Compound 21, 2–(3-hydroxy-4-nitrophenyl)quinazolin-4(3H)-one] | > 50 | – | – | – | – |
| O=c1[nH]c(-c2ccc(O)c(O)c2)nc2ccc(-c3ccccc3)cc12 [Compound 6, 2–(3,4-dihydroxyphenyl)-6-phenylquinazolin-4(3H)-one] | 0.37 ± 0.01 | 63 ± 11 | 89 ± 10 | 290 ± 6 | – |
| O=c1[nH]c(-c2ccc(O)c(O)c2)nc2cc(Cl)ccc12 [Compound 11, 2–(3,4-dihydroxyphenyl)-7-chloroquinazolin-4(3H)-one] | 0.43 ± 0.01 | > 100 | 7.2 ± 0.7 | 660 ± 50 | CC50 [4]: 6000 nM; selectivity index (SI) [5]: 3; EC50 [5]: 1800 nM; interaction constant α [6]: greater than 1; simultaneous inhibition of RNase H (Yonetani-Theorell) [6]: not kinetically mutually exclusive |
| O=c1[nH]c(-c2ccc(O)c(O)c2)nc2ncccc12 [Compound 16, 2–(3,4-dihydroxyphenyl)pyrido[2,3-d]pyrimidin-4(3H)-one] | 2.4 ± 1.6 | 38 ± 4 | 0.69 ± 0.19 | 2000 ± 100 | – |
| Oc1ccc(-c2ccc3ccccc3n2)cc1O [Compound 22, 4-(quinolin-2-yl)benzene-1,2-diol] | 2.9 ± 0.89 | – | – | 610 ± 220 | fold more potent on C280A mutant RT RNase H than wt RT ([3]; C280A vs wt): 4 fold |
| O=C1NC(c2ccc(O)c(O)c2)Nc2ccc(Cl)cc21 (stereo not shown) [Compound 14, 6-chloro-2–(3,4-dihydroxyphenyl)-2,3-dihydroquinazolin-4(1H)-one] | 0.56 ± 0.25 | > 100 | > 100 | 400 ± 30 | – |
| O=c1[nH]c(-c2ccc(O)c(O)c2)nc2c1oc1ccccc12 [Compound 15, 2–(3,4-dihydroxyphenyl)benzofuro[3,2-d]pyrimidin-4(3H)-one] | 0.64 ± 0.03 | 25.3 ± 6.3 | 5.35 ± 0.35 | 390 ± 10 | – |
| O=c1[nH]c(-c2ccc(O)c(O)c2)nc2ccc(F)cc12 [Compound 12, 2–(3,4-dihydroxyphenyl)-6-fluoroquinazolin-4(3H)-one] | 0.52 ± 0.06 | > 100 | 6.61 ± 0.93 | 840 ± 30 | – |
| O=c1[nH]c(-c2ccc(O)c(O)c2)nc2sc3c(c12)CCCCC3 [Compound 24, 2–(3,4-dihydroxyphenyl)-3,5,6,7,8,9-hexahydro-4H-cyclohepta[4,5]thieno[2,3-d]pyrimidin-4-one, reference compound] | – | – | – | – | interaction constant α [6]: greater than 1; simultaneous inhibition of RNase H (Yonetani-Theorell) [6]: not kinetically mutually exclusive |
| Cc1ccc2nc(-c3ccc(O)c(O)c3)[nH]c(=O)c2c1 [Compound 2, 2–(3,4-dihydroxyphenyl)-6-methylquinazolin-4(3H)-one] | – | > 100 | 4.3 ± 1.5 | – | IC50 ([7]; read-out: IC50 WT RNase H): 0.41 ± 0.01 µM; IC50 [8]: 370 ± 10 nM |
| O=c1[nH]c(-c2ccc(O)c(O)c2)nc2ccc(I)cc12 [Compound 8, 2–(3,4-dihydroxyphenyl)-6-iodoquinazolin-4(3H)-one] | 0.15 ± 0.01 | 26.7 ± 2.2 | 3.4 ± 0.83 | 120 ± 1 | CC50 [4]: 17000 nM; selectivity index (SI) [5]: 2; EC50 [5]: 8300 nM |
| O=c1[nH]c(-c2ccc(O)c(O)c2)nc2ccc(Br)cc12 [Compound 9, 2–(3,4-dihydroxyphenyl)-6-bromoquinazolin-4(3H)-one] | 0.45 ± 0.008 | 46 ± 3 | 7 ± 2 | 400 ± 10 | – |
| Cc1ccc2c(=O)[nH]c(-c3ccc(O)c(O)c3)nc2c1 [Compound 3, 2–(3,4-dihydroxyphenyl)-7-methylquinazolin-4(3H)-one] | 0.5 ± 0.02 | 60 ± 9 | 2.35 ± 0.44 | 230 ± 20 | CC50 [4]: 25000 nM; selectivity index (SI) [5]: 2; EC50 [5]: 12000 nM |
| O=c1[nH]c(-c2ccc(O)c(O)c2)nc2ccc(Cl)cc12 [Compound 10, 2–(3,4-dihydroxyphenyl)-6-chloroquinazolin-4(3H)-one] | 0.31 ± 0.01 | 30.5 ± 0.4 | 3.4 ± 0.6 | 200 ± 10 | CC50 [4]: 22000 nM; selectivity index (SI) [5]: 4; EC50 [5]: 5400 nM |
| O=C(O)c1ccc(-c2nc3ccccc3c(=O)[nH]2)cc1O [Compound 18, 2-hydroxy-4-(4-oxo-3,4-dihydroquinazolin-2-yl)benzoic acid] | 13.6 ± 0.3 | – | – | – | – |
| COc1ccc2nc(-c3ccc(O)c(O)c3)[nH]c(=O)c2c1 [Compound 4, 2–(3,4-dihydroxyphenyl)-6-methoxyquinazolin-4(3H)-one] | 0.57 ± 0.02 | 57 ± 3 | 8.5 ± 0.3 | 410 ± 10 | – |
| Oc1ccc(-c2ccc3ccccc3c2)cc1O [Compound 23, 4-(naphthalen-2-yl)benzene-1,2-diol] | 0.71 ± 0.03 | – | – | 1200 ± 40 | CC50 [4]: 26000 nM; selectivity index (SI) [5]: 2; EC50 [5]: 14000 nM; fold more potent than the reported compound 17 ([1]; wt RT RNase H): 5 fold |
| O=c1[nH]c(-c2ccc(O)c(O)c2)nc2ccccc12 [Compound 17, 2–(3,4-dihydroxyphenyl)quinazolin-4(3H)-one] | – | 70 ± 1 | 1.44 ± 0.4 | – | IC50 ([7]; read-out: IC50 (µM) WT RNase H): 3.46 ± 0.47 µM; fold less potent HIV-1 RNase H inhibitor ([1]; compared with decorated quinazolinone 2): 8 fold |
| O=c1[nH]c(-c2ccc(O)c(O)c2)nc2cc3ccccc3cc12 [Compound 7, 2–(3,4-dihydroxyphenyl)benzo[g]quinazolin-4(3H)-one] | 1.1 ± 0.04 | 23.4 ± 0.5 | 31.5 ± 6.5 | 510 ± 50 | – |
| Cc1sc2nc(-c3ccc(O)c(O)c3)[nH]c(=O)c2c1C [Compound 1, 2-(3,4-dihydroxyphenyl)-5,6-dimethylthieno[2,3-d]pyrimidin-4(3H)-one, reference compound] | – | – | – | – | IC50 [8]: 320 nM |
| O=c1[nH]c(-c2ccc(O)c(O)c2)nc2ccc([N+](=O)[O-])cc12 [Compound 13, 2–(3,4-dihydroxyphenyl)-6-nitroquinazolin-4(3H)-one] | 0.31 ± 0.01 | 99 ± 1 | 23.2 ± 0.8 | 170 ± 4 | – |
| COc1cc2nc(-c3ccc(O)c(O)c3)[nH]c(=O)c2cc1OC [Compound 5, 2–(3,4-dihydroxyphenyl)-6,7-dimethoxyquinazolin-4(3H)-one] | 0.73 ± 0.02 | > 100 | 6.5 ± 2.5 | 330 ± 3 | – |
| Nc1ccc(-c2nc3ccccc3c(=O)[nH]2)cc1O [Compound 19, 2-(4-amino-3-hydroxyphenyl)quinazolin-4(3H)-one] | > 50 | – | – | – | – |
| Nc1ccc(-c2nc3ccccc3c(=O)[nH]2)cc1N [Compound 20, 2–(3,4-diaminophenyl)quinazolin-4(3H)-one] | > 50 | – | – | – | – |
